Experimental data from patent US20250163050A1, “CRYSTALLINE (+)-TETRABENAZINE” (Foresee Pharmaceuticals Co., Ltd., priority 2022, published 2025).
In brackets after ≈: the same amount, converted by molar mass. Like-named read-outs stand apart in the source and are kept apart here.

Legend:
dopamine receptors = details: cited from earlier work
[1] = compared with TBZ; cited from earlier work
[2] = Powder flow property, angle of repose (USP 1174); assay type: physicochemical
From the text: The present application enables the production of crystalline (+)-TBZ in various particle size ranges and crystal morphology (e.g. rod-shaped crystals and more symmetric crystals). As API powder/crystalline flowability can be critical in the manufacture of a drug product, flow property of crystalline (+)-TBZ in the present application was investigated.

[3] = Solubility in PBS with 0.2% (w/v) tween 20 at 37° C.; assay type: physicochemical; details: for solubility: PBS with 0.2% (w/v) tween 20, 37° C., overnight
Description: 20 mg Form 2 crystalline (+)-TBZ was dispersed into 1 ml PBS with 0.2% (w/v) tween 20. Then, this excessively saturated suspension was stirred overnight at 37° C. 0.8 ml of former suspension was transferred into 1.5 mL Eppendorf centrifuge tube. The undissolved solid was spun down using bench-top centrifuge at the rotation of 14000 rpm for 5 min.
• Flow rate: 0.3 mL/min • Column temp: 55° C. • Injection volume: 2 uL • Detection: 220 nm • Run time: 10 min • (+)-TBZ retention time: ˜3.5 min

[4] = Metabolism in rat liver microsome (RLM); assay type: in vitro ADME
Description: Rat liver microsome (RLM) study was conducted to investigate the generation of pharmaceutically active metabolites of Form 2 (+)-TBZ and TBZ racemate.

[5] = patients, dose escalation; cited from earlier work
[6] = in vivo; cited from earlier work

## COc1cc2c(cc1OC)[C@H]1C[C@@H](O)[C@H](CC(C)C)CN1CC2 [(2R,3R,11bR)-DHTBZ]
Dopamine receptors
  binding at dopamine receptors: negligible binding
[1]
  sedative effects: lack the unwanted sedative effects

## COc1cc2c(cc1OC)[C@H]1CC(=O)[C@H](CC(C)C)CN1CC2 [Form 2 crystalline (+)-TBZ, (3R,11bR)-tetrabenazine]
[2]; D50 15 μm
  Response Angle: 45.3 ± 5.0 °
[2]; D50 35 μm
  Response Angle: 43.3 ± 2.5 °
[2]; D50 50 μm
  Response Angle: 36.7 ± 7.6 °
[2]; D50 80 μm, more symmetric crystals
  Response Angle: 34.7 ± 1.2 °
[2]; D50 80 μm, more symmetric crystals, listed as more symmetric crystalline (+)-TBZ
  Response Angle: about 35 °
[2]; D50 125 μm
  Response Angle: 35.3 ± 2.3 °
[2]; Rod shape (80 μm)
  Response Angle: 64.3 ± 1.2 °
[2]; Rod shape (80 μm), listed as rod-shaped crystalline (+)-TBZ
  Response Angle: about 64 °
[3]
  solubility: 61.032 µg/mL (≈ 192 µM)
[4]; 0 min
  (+)-DHTBZ concentration in RLM: 0 ng/mL
  (+)-TBZ concentration in RLM: 2056 ng/mL
  (−)-DHTBZ concentration in RLM: 0 ng/mL
  (−)-TBZ concentration in RLM: 0 ng/mL
[4]; 15 min
  (+)-DHTBZ concentration in RLM: 455 ng/mL
  (+)-TBZ concentration in RLM: 881 ng/mL
  (−)-DHTBZ concentration in RLM: 0 ng/mL
  (−)-TBZ concentration in RLM: 0 ng/mL
[4]; 30 min
  (+)-DHTBZ concentration in RLM: 608 ng/mL
  (+)-TBZ concentration in RLM: 366 ng/mL
  (−)-DHTBZ concentration in RLM: 0 ng/mL
  (−)-TBZ concentration in RLM: 0 ng/mL
[4]; 45 min
  (+)-DHTBZ concentration in RLM: 616 ng/mL
  (+)-TBZ concentration in RLM: 122 ng/mL
  (−)-DHTBZ concentration in RLM: 0 ng/mL
  (−)-TBZ concentration in RLM: 0 ng/mL
[4]; 60 min
  (+)-DHTBZ concentration in RLM: 627 ng/mL
  (+)-TBZ concentration in RLM: 42 ng/mL
  (−)-DHTBZ concentration in RLM: 0 ng/mL
  (−)-TBZ concentration in RLM: 0 ng/mL
[4]; rat liver microsome
  amounts of therapeutically active VMAT2 inhibitors, (+)-TBZ and (+)-DHTBZ, generated in RLM versus racemate TBZ: comparable amounts
  half-life: 10.6 min

## COc1cc2c(cc1OC)[C@H]1C[C@H](O)[C@H](CC(C)C)CN1CC2 [(2S,3R,11bR)-DHTBZ]
Dopamine receptors
  binding at dopamine receptors: negligible binding
[1]
  sedative effects: lack the unwanted sedative effects

## COc1cc2c(cc1OC)C1CC(=O)C(CC(C)C)CN1CC2 (racemic) [TBZ racemate, 1,3,4,6,7,11b-hexahydro-9,10-dimethoxy-3-(2-methylpropyl)-2H-benzo[a]quinolizin-2-one]
[3]; PBS with 0.2% w/v Tween 20
  less solubility compared to Form 2 crystalline (+)-TBZ: about 40%
[3]; aqueous with cosolvent or surfactant or cyclodextrin, thermodynamic from solid, read-out: Solubility
  solubility: 36.4 µg/mL (≈ 115 µM)
[4]; liver microsomes, rat liver microsome, read-out: Half-life
  half-life: 10.6 min
[5]
  side-effect: akathisia: 9.5%
  side-effect: depression: 15.0%
  side-effect: drowsiness: 36.5%
  side-effect: insomnia: 11.0%
  side-effect: nervousness or anxiety: 10.3%
  side-effect: parkinsonism: 28.5%
[6]
  bioavailability: low and variable
